Series [1] concerns Mouse B16 melanoma cell. The series is described as follows: Quantification of the number of cells (alamarBlue), cell growth / cell toxicity. It counts as cell-based. As for the experimental part: (§1) Mouse B16 melanoma cell was used. The cells were inoculated at 1×10^5 cells/well to a 6-well plate, and cultured with using a commercially available medium (trade name: EAGLE MEM, manufactured by Nissui Pharmaceutical Co., Ltd.) supplemented with 10% fetal bovine serum. The cells were cultured at 37° C., 5% CO2 and under completely saturated water-vapor atmosphere.
(§2) For determining the effect of hydroxyproline on cell growth and melanin content reduction, after culturing the cells for 24 hours, stock solutions of 4-trans-L-hydroxyproline, 4-trans-D-hydroxyproline, 4-cis-L-hydroxyproline or 4-cis-D-hydroxyproline were prepared and added in the same volume to the cells, further cultured for 3 days and used for the experiment. Meanwhile, as a control group, the same volume of water was added.
3 days after the addition of a solution of test compound, the medium was removed by suction. Eagle's-MEM containing the solution of 10% alamarBlue (trade name: BIOSOURCE, manufactured by Biosource International) was added and the reaction was allowed to occur at 37° C. Thirty minutes later, the fluorescence was measured with excitation wavelength of 544 nm and measurement wavelength of 590 nm. By having the obtained number as a relative value of the cell number, the ratio of number of cells (i.e. % number of cells) for a group added with the test compound compared to a group not added with the test compound (i.e. only the solvent was added) was calculated. Higher % number of cells indicates lower cell toxicity. When it is less than 80%, it was determined as “toxic.”
(§3) The equal amounts of 4-trans-L-hydroxyproline and 4-cis-D-hydroxyproline were mixed to produce the mixture solution of 4-trans-L-hydroxyproline and 4-cis-D-hydroxyproline, which was then provided for the experiments. Cell culture and quantification and evaluation of number of the cells and melanin were carried out in the same manner as the Examples above.
(§4) By using the mixture solution in which 4-trans-L-hydroxyproline and 4-cis-D-hydroxyproline were mixed at various ratio, test for determining cell growth and melanin content reduction was carried out. Cell culture and quantification and evaluation were carried out in the same manner as the Examples above.
For orientation: Resazurin is reduced to fluorescent resorufin, in cell work by metabolically active cells.

Series [2] has as its system Mouse B16 melanoma cell. Kind of series: Quantification of melanin (melanin content ratio, absorbance at 475 nm). The format is cell-based. The following applies: for effect on reducing melanin content (conclusion): 3.33 ppm up to 2690 ppm. As for the experimental part:
as §1, §2
The medium was removed by suction. After washing three times with the buffer (phosphate buffer solution 50 mM, pH 6.8), the cells were lysed by addition of 1 N NaOH, and the absorbance was measured at 475 nm. By having the obtained value as a relative value of the melanin content, the ratio of melanin content (%) for a group added with the test compound compared to a group not added with the test compound (i.e. only the solvent was added) was calculated. Lower ratio of melanin content means the higher inhibition effect on melanin production.
By using the measured value of melanin content that was obtained according to the measurement method above, percentage ratio of the melanin content was calculated by dividing the melanin content in the cells added with 4-trans-L-hydroxyproline, 4-trans-D-hydroxyproline, 4-cis-L-hydroxyproline, or 4-cis-D-hydroxyproline by the melanin content in the cells for control experiment, and the resulting value was taken as a ratio of melanin content.
as §3, §4

Series [3] concerns Chinese hamster V79 cells. The following applies: cited from earlier work.
Setting [4] is: FIG. 2, 100 ppm single compound, duplicate.

Each structure is given as a SMILES string. Bounds are passed on as bounds.

Regarding `O=C(O)[C@H]1C[C@@H](O)CN1` (stereo in doubt) [4-cis-D-hydroxyproline], the “number of cells when the control was represented as 100%” value (shortened to “number of cells … as 100%”) is listed as 97% with Mouse B16 melanoma cell [1] (FIG. 1, 3.33 ppm, 3 days); 98% in the series with Mouse B16 melanoma cell [1] (FIG. 1, 11.1 ppm, 3 days); 101% in the series on Mouse B16 melanoma cell [1] (FIG. 1, 33.3 ppm, 3 days); 92% in the series on Mouse B16 melanoma cell [1] (FIG. 1, 333 ppm, 3 days); 93% in the series on Mouse B16 melanoma cell [1] (FIG. 3, 33.3 ppm, duplicate); 92% in the series on Mouse B16 melanoma cell [1] (FIG. 3, 50 ppm, duplicate). Further, the “number of cells … as 100%” value in the series on Mouse B16 melanoma cell [1] (FIG. 3, 100 ppm, duplicate) stood at 91%; in the series with Mouse B16 melanoma cell [1] (FIG. 3, 333 ppm, duplicate), 88%. Further, in the series with Mouse B16 melanoma cell [1] (FIG. 1, 3 days), the “concentration up to which the number of cells was not significantly different from the control (no effect on survival)” value is not above 333 ppm. In addition, the “effect on reducing melanin content (conclusion)” value with Mouse B16 melanoma cell [2] (FIG. 1) is reported as “effect on reducing melanin content in a concentration-dependent manner”. In addition, the melanin content ratio is given as 100% in the series with Mouse B16 melanoma cell [2] (FIG. 1, 3.33 ppm, 3 days); 98% with Mouse B16 melanoma cell [2] (FIG. 1, 11.1 ppm, 3 days); 96% in the series on Mouse B16 melanoma cell [2] (FIG. 1, 33.3 ppm, 3 days); 32% in the series on Mouse B16 melanoma cell [2] (FIG. 1, 333 ppm, 3 days); 90% in the series with Mouse B16 melanoma cell [2] (FIG. 2, 33.3 ppm, duplicate); 85% in the series with Mouse B16 melanoma cell [2] (FIG. 2, 50 ppm, duplicate). Moreover, the melanin content ratio is 72% in the series on Mouse B16 melanoma cell [2] (setting [4]); 32% with Mouse B16 melanoma cell [2] (FIG. 2, 333 ppm, duplicate); 92% in the series on Mouse B16 melanoma cell [2] (FIG. 3, 33.3 ppm, duplicate); 84% with Mouse B16 melanoma cell [2] (FIG. 3, 50 ppm, duplicate); 75% in the series with Mouse B16 melanoma cell [2] (FIG. 3, 100 ppm, duplicate); 37% with Mouse B16 melanoma cell [2] (FIG. 3, 333 ppm, duplicate). Also, in the series with Mouse B16 melanoma cell [2] (FIG. 2, 4-cis-D starting from 33.3 ppm, mixture with same amount of 4-cis-D), the “inhibition of melanin synthesis / melanin content (conclusion)” value was “prominently inhibit melanin synthesis in a concentration-dependent manner”.

Consider `O=C(O)[C@@H]1C[C@H](O)CN1` (stereo in doubt) [4-cis-L-hydroxyproline], for which the “number of cells … as 100%” value is 93% with Mouse B16 melanoma cell [1] (FIG. 1, 3.33 ppm, 3 days); 92% in the series on Mouse B16 melanoma cell [1] (FIG. 1, 11.1 ppm, 3 days); 84% with Mouse B16 melanoma cell [1] (FIG. 1, 33.3 ppm, 3 days); 97% with Mouse B16 melanoma cell [1] (FIG. 2, 33.3 ppm, duplicate); 93% in the series with Mouse B16 melanoma cell [1] (FIG. 2, 50 ppm, duplicate); 95% in the series on Mouse B16 melanoma cell [1] (setting [4]). Also, in the series on Mouse B16 melanoma cell [1] (FIG. 2, 333 ppm, duplicate), the “number of cells … as 100%” value was found to be 89%. For the same molecule, in the series on Mouse B16 melanoma cell [1] (FIG. 1, 3 days), the “concentration up to which the number of cells was not significantly different from the control (no effect on survival)” value was “up to 33.3 ppm”. Besides, the “effect on reducing melanin content (conclusion)” value in the series with Mouse B16 melanoma cell [2] (FIG. 1) was “effect on reducing melanin content in a concentration-dependent manner”. Also, the melanin content ratio came out at 92% in the series on Mouse B16 melanoma cell [2] (FIG. 1, 3.33 ppm, 3 days); 83% with Mouse B16 melanoma cell [2] (FIG. 1, 11.1 ppm, 3 days); 30% with Mouse B16 melanoma cell [2] (FIG. 1, 33.3 ppm, 3 days).

On to `O=C(O)[C@H]1C[C@H](O)CN1` (stereo in doubt) [4-trans-D-hydroxyproline], for which the “number of cells … as 100%” value turned out to be 98% with Mouse B16 melanoma cell [1] (FIG. 1, 3.33 ppm, 3 days); 100% with Mouse B16 melanoma cell [1] (FIG. 1, 11.1 ppm, 3 days); 101% in the series with Mouse B16 melanoma cell [1] (FIG. 1, 33.3 ppm, 3 days); 105% with Mouse B16 melanoma cell [1] (FIG. 1, 333 ppm, 3 days); 109% in the series with Mouse B16 melanoma cell [1] (FIG. 1, 2690 ppm, 3 days). Moreover, the “effect on reducing melanin content (conclusion)” value with Mouse B16 melanoma cell [2] (FIG. 1) is on record as “no effect on reducing melanin content”. Moreover, the melanin content ratio in the series with Mouse B16 melanoma cell [2] (FIG. 1, 3.33 ppm, 3 days) is on record as 97%; with Mouse B16 melanoma cell [2] (FIG. 1, 11.1 ppm, 3 days), 99%; with Mouse B16 melanoma cell [2] (FIG. 1, 33.3 ppm, 3 days) it was 99%; with Mouse B16 melanoma cell [2] (FIG. 1, 333 ppm, 3 days), 101%; in the series with Mouse B16 melanoma cell [2] (FIG. 1, 2690 ppm, 3 days), 110%.

Regarding `O=C(O)[C@@H]1C[C@@H](O)CN1` (stereo in doubt) [4-trans-L-hydroxyproline], the “number of cells … as 100%” value in the series on Mouse B16 melanoma cell [1] (FIG. 1, 3.33 ppm, 3 days) was determined as 95%; in the series with Mouse B16 melanoma cell [1] (FIG. 1, 11.1 ppm, 3 days) it was 103%; in the series with Mouse B16 melanoma cell [1] (FIG. 1, 33.3 ppm, 3 days), 99%; in the series on Mouse B16 melanoma cell [1] (FIG. 1, 333 ppm, 3 days) it was 101%; in the series on Mouse B16 melanoma cell [1] (FIG. 1, 2690 ppm, 3 days), 94%; in the series with Mouse B16 melanoma cell [1] (FIG. 2, 33.3 ppm, duplicate), 95%. In addition, the “number of cells … as 100%” value in the series on Mouse B16 melanoma cell [1] (FIG. 2, 50 ppm, duplicate) was determined as 100%; in the series with Mouse B16 melanoma cell [1] (setting [4]) it was 98%; in the series with Mouse B16 melanoma cell [1] (FIG. 2, 333 ppm, duplicate), 102%; in the series with Mouse B16 melanoma cell [1] (FIG. 3, 333 ppm, duplicate), 100%; with Mouse B16 melanoma cell [1] (FIG. 3, 480 ppm, duplicate) it was 96%; with Mouse B16 melanoma cell [1] (FIG. 3, 666 ppm, duplicate) it was 102%. Also, the “number of cells … as 100%” value in the series on Mouse B16 melanoma cell [1] (FIG. 3, 1332 ppm, duplicate) worked out at 99%. Besides, in the series on Mouse B16 melanoma cell [2] (FIG. 1), the “effect on reducing melanin content (conclusion)” value is given as “no effect on reducing melanin content”. The melanin content ratio stood at 103% in the series with Mouse B16 melanoma cell [2] (FIG. 1, 3.33 ppm, 3 days); 108% in the series with Mouse B16 melanoma cell [2] (FIG. 1, 11.1 ppm, 3 days); 105% in the series with Mouse B16 melanoma cell [2] (FIG. 1, 33.3 ppm, 3 days); 104% in the series with Mouse B16 melanoma cell [2] (FIG. 1, 333 ppm, 3 days); 107% in the series with Mouse B16 melanoma cell [2] (FIG. 1, 2690 ppm, 3 days); 103% in the series with Mouse B16 melanoma cell [2] (FIG. 2, 33.3 ppm, duplicate). Further, the melanin content ratio in the series on Mouse B16 melanoma cell [2] (FIG. 2, 50 ppm, duplicate) is 104%; in the series with Mouse B16 melanoma cell [2] (setting [4]), 108%; in the series on Mouse B16 melanoma cell [2] (FIG. 2, 333 ppm, duplicate), 112%; in the series on Mouse B16 melanoma cell [2] (FIG. 3, 333 ppm, duplicate), 103%; with Mouse B16 melanoma cell [2] (FIG. 3, 480 ppm, duplicate), 99%; in the series with Mouse B16 melanoma cell [2] (FIG. 3, 666 ppm, duplicate) it was 107%. Moreover, the melanin content ratio with Mouse B16 melanoma cell [2] (FIG. 3, 1332 ppm, duplicate) was found to be 102%.

Take `Oc1ccc(O)cc1` [Hydroquinone, hydroquinone]: the mutagenic activity entry in series [3] is reported as “mutagenic activity”.

(Values after patent publication US20120122951A1 (priority 2009, published 2012).)
